Legend:
[1] = molecular target: T1, GAL4RXR + VP16DmEcR (Drosophila melanogaster, UniProt P34021); experiment: Transactivation of reporter gene through switch 1.4 in 293 cells; format: cell-based, Mus musculus; Drosophila melanogaster; settings: switch 1.4, pGAL4RELuc
T1 sequence (P34021 254-878): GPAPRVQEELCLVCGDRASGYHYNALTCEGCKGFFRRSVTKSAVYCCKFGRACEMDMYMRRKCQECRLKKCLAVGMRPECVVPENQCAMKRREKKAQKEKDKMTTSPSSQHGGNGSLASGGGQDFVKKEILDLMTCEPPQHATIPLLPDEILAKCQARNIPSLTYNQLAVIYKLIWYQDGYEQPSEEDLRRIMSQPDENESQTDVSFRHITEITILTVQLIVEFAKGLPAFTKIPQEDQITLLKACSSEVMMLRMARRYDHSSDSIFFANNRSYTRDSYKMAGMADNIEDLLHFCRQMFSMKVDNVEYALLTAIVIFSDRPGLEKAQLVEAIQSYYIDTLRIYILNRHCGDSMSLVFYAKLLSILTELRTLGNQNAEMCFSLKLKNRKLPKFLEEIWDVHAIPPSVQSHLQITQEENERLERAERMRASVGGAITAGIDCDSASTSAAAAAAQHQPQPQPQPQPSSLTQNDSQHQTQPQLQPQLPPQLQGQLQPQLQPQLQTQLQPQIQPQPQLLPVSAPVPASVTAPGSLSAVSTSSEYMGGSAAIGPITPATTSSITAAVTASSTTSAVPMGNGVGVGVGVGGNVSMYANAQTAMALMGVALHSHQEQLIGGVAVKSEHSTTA
T1 sequence (P28700 206-467 partner limits assumed): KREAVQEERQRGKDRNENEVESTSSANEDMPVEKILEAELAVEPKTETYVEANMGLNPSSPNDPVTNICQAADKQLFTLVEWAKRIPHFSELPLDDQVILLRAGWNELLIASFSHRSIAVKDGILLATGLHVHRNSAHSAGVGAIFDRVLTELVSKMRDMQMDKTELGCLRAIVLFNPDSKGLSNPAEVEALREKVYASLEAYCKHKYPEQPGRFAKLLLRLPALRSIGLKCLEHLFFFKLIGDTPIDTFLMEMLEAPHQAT
Experimental: This construct was prepared in the same way as switch 1.3 except CfEcRCDEF was replaced with DmEcRCDEF (SEQ ID NO: 6).
(§1) The cells were harvested and reporter activity was assayed.
The same procedures described for CHO were followed for 293 cells except that the cells were plated in biocoated plates to avoid clumping.
(§2) Cells were harvested 24–48 hr after adding ligands. […] Twenty μl of lysate was assayed.

[2] = test system: EcR/RXR receptor combinations; experiment: Truncated CfEcR and MmRXR receptor combinations, luciferase reporter in NIH3T3 cells; format: cell-based, Choristoneura fumiferana; Mus musculus; settings: 0, 1, 5 or 25 uM ligand for 48 hr, FIGS. 11–14
Experimental: Briefly, polynucleotides encoding EcR or RXR receptors were truncated at the junctions of A/B, C, D, E and F domains and fused to either a GAL4 DNA binding domain encoding polynucleotide (SEQ ID NO: 43) for CfEcR, or a VP16 activation domain encoding polynucleotide (SEQ ID NO: 49) for MmRXR as described in Example 1. The resulting receptor truncation/fusion polypeptides were assayed in NIH3T3 cells. Plasmid pFRLUC (Stratagene) encoding a luciferase polypeptide was used as a reporter gene construct and pTKRL (Promega) encoding a Renilla luciferase polypeptide under the control of the constitutive TK promoter was used to normalize the transfections as described above. The analysis was performed in triplicates and mean luciferase counts were determined as described above. […]

[3] = test system: GAL4EcR + VP16USP; experiment: Transactivation of reporter gene through switch 1.2 in 3T3 cells; format: cell-based, Choristoneura fumiferana; settings: switch 1.2, pGAL4RELuc
Experimental: This construct was prepared in the same way as in switch 1.1 above except MmRXRDEF was replaced with the D, E and F domains from spruce budworm USP (“CfUSPDEF”; SEQ ID NO: 67). The constructs used in this example are similar to those disclosed in U.S. Pat. No. 5,880,333 except that Choristoneura fumiferana USP rather than Drosophila melanogaster USP was utilized.
as §1
(§3) The cells were plated when they reached 50% confluency.
as §2

[4] = test system: CfVgRXR; experiment: Transactivation of reporter gene through switch 1.10 in CV1 cells; format: cell-based, Choristoneura fumiferana; settings: switch 1.10, pIND(SP1)LacZ
Experimental: This example was prepared in the same way as switch 1.9 except MmRXR (SEQ ID NO: 62) was deleted.
as §1, §3
The same procedures described for NIH3T3 cells were followed for CV1 cells
as §2

[5] = test system: VP16CfEcR; experiment: Transactivation of reporter gene through switch 1.7 in 3T3 cells; format: cell-based, Choristoneura fumiferana; settings: switch 1.7, pEcRELuc
Experimental: Six ecdysone response elements (“EcRE”; SEQ ID NO: 55) from the hsp27 gene were placed upstream of the promoter and a luciferase gene (SEQ ID NO: 66). This switch most probably uses endogenous RXR.
as §1, §3, §2

CCc1c(OC)cccc1C(=O)NN(C(=O)c1cc(C)cc(C)c1)C(C)(C)C [N-(2-ethyl-3-methoxybenzoyl)-N′-(3,5-dimethylbenzoyl)-N′-t-butylhydrazine]
Mean Fold Activation Through N-(2-ethyl-3-methoxybenzoyl)-N′-(3,5-dimethylbenzoyl)-N′-t-butylhydrazine [1]: 3 fold
Sensitivity of the EcR/RXR switch to the ligand [2]: much more sensitive
Mean Fold Activation Through N-(2-ethyl-3-methoxybenzoyl)-N′-(3,5-dimethylbenzoyl)-N′-t-butylhydrazine [3]: 2 fold
Mean Fold Activation Through N-(2-ethyl-3-methoxybenzoyl)-N′-(3,5-dimethylbenzoyl)-N′-t-butylhydrazine [4]: 1 fold
Mean Fold Activation Through N-(2-ethyl-3-methoxybenzoyl)-N′-(3,5-dimethylbenzoyl)-N′-t-butylhydrazine [5]: 1 fold
